Measurements: patent US20200331904A1, “3-AMINO-[1,2,4]-TRIAZOLE DERIVATIVES AND THEIR USE FOR CONTROLLING UNDESIRED PLANT GROWTH” (Bayer CropScience Aktiengesellschaft, priority 2017, published 2020)

Experiments:
Format in all cases: in vivo
Abutilon theophrasti = assay: Pre-emergence herbicidal efficacy, ABUTH; details: Table B1, application rate 320 g/ha, scored visually after about 3 weeks vs untreated controls
Summary of the method: (§1)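 Seeds were sown in pots and covered with soil; WP or EC formulations were sprayed onto the soil surface as aqueous suspension or emulsion with 0.5% additive. Pots were kept in a greenhouse, and after about 3 weeks damage was rated visually as percent versus untreated controls (100% = plants dead, 0% = like control).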

Viola tricolor [1] = assay: Post-emergence herbicidal efficacy, VIOTR; details: application rate 320 g/ha
Text: (§2) ABUTH: Abutilon theophrasti ALOMY: Alopecurus myosuroides AMARE: Amaranthus retroflexus AVEFA: Avena fatua CYPES: Cyperus esculentus ECHCG: Echinochloa crus-galli LOLMU: Lolium multiflorum MATIN: Matricaria inodora PHBPU: Ipomoea purpurea POLCO: Polygonum convolvulus SETVI: Setaria viridis STEME: Stellaria media VERPE: Veronica persica VTOTR: Viola tricolor
(§3) C.2 Post-Emergence Herbicidal Action and Crop Plant Compatibility
(§4) Seeds of monocotyledonous and dicotyledonous weeds and crop plants are placed in sandy loam in plastic or organic planting pots, covered with soil and cultivated in a greenhouse under controlled growth conditions. 2 to 3 weeks after sowing, the test plants are treated at the one-leaf stage. The compounds of the invention, formulated in the form of wettable powders (WP) or as emulsion concentrates (EC), are then sprayed onto the green parts of the plants as aqueous suspension or emulsion with addition of 0.5% additive at a water application rate of […] (converted). After the test plants had been kept in the greenhouse under optimum growth conditions for about 3 weeks, the activity of the preparations is rated visually in comparison to untreated controls. For example, 100% activity=the plants have died, 0% activity=like control plants.

Viola tricolor [2] = assay: Pre-emergence herbicidal efficacy, VIOTR; details: Table B1, application rate 320 g/ha, scored visually after about 3 weeks vs untreated controls
Summary of the method: as §1

Lolium rigidum [3] = assay: Pre-emergence herbicidal efficacy, LOLRI; details: Table B1, application rate 320 g/ha, scored visually after about 3 weeks vs untreated controls
Summary of the method: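 Seeds sown in pots and covered with soil. Greenhouse-grown about 3 weeks, then visually scored as % activity vs untreated controls (100% = dead, 0% = like control).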

Veronica persica [4] = assay: Pre-emergence herbicidal efficacy, VERPE; details: Table B1, application rate 320 g/ha, scored visually after about 3 weeks vs untreated controls
Summary of the method: as §1

Matricaria inodora = assay: Pre-emergence herbicidal efficacy, MATIN; details: Table B1, application rate 320 g/ha, scored visually after about 3 weeks vs untreated controls
Summary of the method: as §1

Veronica persica [5] = assay: Post-emergence herbicidal efficacy, VERPE; details: application rate 320 g/ha
Text: as §2, §3, §4

Echinochloa crus-galli [6] = assay: Pre-emergence herbicidal efficacy, ECHCG; details: Table B1, application rate 320 g/ha, scored visually after about 3 weeks vs untreated controls
Summary of the method: as §1

Amaranthus retroflexus [7] = assay: Pre-emergence herbicidal efficacy, AMARE; details: Table B1, application rate 320 g/ha, scored visually after about 3 weeks vs untreated controls
Summary of the method: as §1

Polygonum convolvulus = assay: Pre-emergence herbicidal efficacy, POLCO; details: Table B1, application rate 320 g/ha, scored visually after about 3 weeks vs untreated controls
Summary of the method: as §1

Stellaria media [8] = assay: Pre-emergence herbicidal efficacy, STEME; details: Table B1, application rate 320 g/ha, scored visually after about 3 weeks vs untreated controls
Summary of the method: as §1

Setaria viridis = assay: Pre-emergence herbicidal efficacy, SETVI; details: Table B1, application rate 320 g/ha, scored visually after about 3 weeks vs untreated controls
Summary of the method: as §1

Lolium rigidum [9] = assay: Post-emergence herbicidal efficacy, LOLRI; details: application rate 320 g/ha, rated visually after about 3 weeks
Method: as §3, §4

Echinochloa crus-galli [10] = assay: Post-emergence herbicidal efficacy, ECHCG; details: application rate 320 g/ha, rated visually after about 3 weeks
Text: as §2, §3, §4

Stellaria media [11] = assay: Post-emergence herbicidal efficacy, STEME; details: application rate 320 g/ha, rated visually after about 3 weeks
Text: as §2, §3, §4

Amaranthus retroflexus [12] = assay: Post-emergence herbicidal efficacy, AMARE; details: application rate 320 g/ha, rated visually after about 3 weeks
Text: as §2, §3, §4

harmful plants = assay: Post-emergence herbicidal action; details: applied post-emergence
Method: as §3, §4

[13] = rated visually after about 3 weeks (Table B7)
[14] = rated visually after about 3 weeks (Table B5)

Row | Structure (SMILES) | Herbicidal efficacy against ABUTH (Abutilon theophrasti) [%] | Herbicidal efficacy against VIOTR (Viola tricolor [1]; [13]) [%] | Herbicidal efficacy against VIOTR (Viola tricolor [2]) [%] | Herbicidal efficacy against LOLRI (Lolium rigidum [3]) [%] | Herbicidal efficacy against VERPE (Veronica persica [4]) [%] | Herbicidal efficacy against MATIN (Matricaria inodora) [%] | Herbicidal efficacy against VERPE (Veronica persica [5]; [13]) [%] | Herbicidal efficacy against ECHCG (Echinochloa crus-galli [6]) [%] | Herbicidal efficacy against AMARE (Amaranthus retroflexus [7]) [%] | Herbicidal efficacy against POLCO (Polygonum convolvulus) [%] | Herbicidal efficacy against STEME (Stellaria media [8]) [%] | Herbicidal efficacy against SETVI (Setaria viridis) [%] | Herbicidal efficacy against VIOTR (Viola tricolor [1]; [14]) [%] | Herbicidal efficacy against LOLRI (Lolium rigidum [9]) [%] | Herbicidal efficacy against ECHCG (Echinochloa crus-galli [10]) [%] | Herbicidal efficacy against VERPE (Veronica persica [5]; [14]) [%] | Herbicidal efficacy against STEME (Stellaria media [11]) [%] | Herbicidal efficacy against AMARE (Amaranthus retroflexus [12]) [%] | herbicidal efficacy against harmful plants (harmful plants)
1 | Cc1ccc2c(c1)[C@H](Nc1nc3n(n1)CCN(S(=O)(=O)C1CC1)C3)CCC2 [Example I-200] | 100 | 80 | 100 | 100 | 100 | 100 | 100 | 100 | 100 | 100 | 100 | 100 | – | – | – | – | – | – | –
2 | Fc1cccc2c1CCC[C@H]2Nc1nc2n(n1)CCCCS2 [Example I-213] | 100 | 90 | 100 | 100 | 100 | 100 | 90 | 100 | 100 | 100 | 100 | 100 | – | – | – | – | – | – | –
3 | Cc1ccc2c(c1)C(Nc1nc3n(n1)CCC(=O)N3C)CC2 (centres unmarked) [Example I-227] | 100 | 90 | 100 | 100 | 100 | 100 | 100 | 100 | 100 | 100 | 100 | 100 | – | – | – | – | – | – | –
4 | Cc1ccc2c(c1)C(Nc1nc3n(n1)CCCCS3(=O)=O)CC2 (centres unmarked) [Example I-232] | 100 | – | 100 | 100 | 100 | 100 | – | 100 | 100 | 100 | 100 | 100 | 90 | 90 | 80 | 90 | 100 | 100 | –
5 | Cc1ccc2c(c1)C(Nc1nc3n(n1)CCCCS3(=O)=O)CCC2 (centres unmarked) [Example I-234] | 100 | 90 | 100 | 100 | 100 | 100 | 80 | 100 | 100 | 100 | 100 | 100 | – | – | – | – | – | – | –
6 | Cc1ccc2c(c1)C(Nc1nc3n(n1)CCCC[S+]3[O-])CC2 (centres unmarked) [Example I-245] | 100 | 80 | 100 | 100 | 100 | 100 | 90 | 100 | 100 | 100 | 100 | 100 | – | – | – | – | – | – | –
7 | Cc1ccc2c(c1)C(Nc1nc3n(n1)CCCCS3)CC2 (centres unmarked) [Example I-248] | 100 | – | 100 | 100 | 100 | 100 | – | 100 | 100 | 100 | 100 | 100 | 90 | 100 | 100 | 90 | 100 | 90 | very good herbicidal efficacy
8 | Cc1ccc2c(c1)[C@H](Nc1nc3n(n1)CCCCS3)CC2 [Example I-353] | 100 | – | 100 | 100 | 100 | 100 | – | 100 | 100 | 100 | 100 | 100 | 80 | 100 | 100 | 90 | 100 | 90 | very good herbicidal efficacy
9 | Cc1ccc2c(c1)C(Nc1nc3n(n1)CCCCS3)C(C)C2 (centres unmarked) [Example I-354] | 100 | – | 100 | 100 | 100 | 100 | – | 100 | 100 | 100 | 100 | 100 | 80 | 100 | 100 | 100 | 100 | 80 | –
10 | c1ccc2c(c1)CCC[C@H]2Nc1nc2n(n1)CCCCS2 [Example I-355] | 100 | – | 100 | 80 | 100 | 100 | – | 100 | 100 | 100 | 100 | 100 | 80 | – | 100 | 80 | 100 | 80 | –
11 | Cc1ccc2c(c1)C(Nc1nc3n(n1)CCCCS3(=O)=O)C(C)C2 (centres unmarked) [Example I-366] | 100 | – | 100 | 100 | 100 | 100 | – | 100 | 100 | 100 | 100 | 100 | – | 90 | 100 | – | 90 | 80 | –
12 | Cc1ccc2c(c1)[C@H](Nc1nc3n(n1)CCCCS3)CCC2 [Example I-402] | 100 | – | 100 | 100 | 100 | 100 | – | 100 | 100 | 100 | 100 | 100 | 90 | – | 100 | 90 | 90 | 90 | –
